Patent US20100267561A1, “HERBICIDAL PYRIDAZINONE DERIVATIVES” (priority 2007, published 2010)

Experiments:
Assay in all cases: Test B pre-/postemergence plant response
Type in all cases: in vivo
[1] = tested on: kochia (Kochia scoparia); settings: for Kochia plant response rating: 8 g ai/ha
Outline: (§1)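 Seeds were sown and sprayed preemergence, while plants at 2 to 18 cm (1- to 4-leaf stage) got postemergence sprays. Compounds were formulated in a non-phytotoxic solvent mixture with surfactant. After 13 to 15 days in a greenhouse, injury was rated visually against untreated controls, 0 (no effect) to 100 (complete control).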

[2] = tested on: johnsongrass (Sorghum halepense); settings: for Johnsongrass plant response rating: 8 g ai/ha
Outline: as §1

[3] = tested on: woolly cupgrass (Eriochloa villosa); settings: for Cupgrass, Woolly plant response rating: 8 g ai/ha
Outline: as §1

[4] = tested on: Russian thistle (Salsola iberica); settings: Preemergence; for Russian Thistle plant response rating: 8 g ai/ha
Outline: as §1

[5] = tested on: blackgrass (Alopecurus myosuroides); settings: for Blackgrass plant response rating: 8 g ai/ha
Outline: as §1

[6] = tested on: pigweed (Amaranthus retroflexus); settings: for Pigweed plant response rating: 8 g ai/ha
Outline: as §1

[7] = tested on: soybean (Glycine max); settings: for Soybean plant response rating: 8 g ai/ha
Outline: as §1

[8] = tested on: lambsquarters (Chenopodium album); settings: for Lambsquarters plant response rating: 8 g ai/ha
Outline: as §1

[9] = tested on: catchweed bedstraw (Galium aparine); settings: Preemergence; for Galium plant response rating: 8 g ai/ha
Outline: as §1

[10] = tested on: goosegrass (Eleusine indica); settings: for Goosegrass plant response rating: 8 g ai/ha
Outline: as §1

[11] = tested on: giant foxtail (Setaria faberii); settings: for Foxtail, Giant plant response rating: 8 g ai/ha
Outline: as §1

[12] = tested on: Italian ryegrass (Lolium multiflorum); settings: for Ryegrass, Italian plant response rating: 8 g ai/ha
Outline: as §1

[13] = tested on: eastern black (E.B.) nightshade (Solanum ptycanthum); settings: Preemergence; for Nightshade, E. B. plant response rating: 8 g ai/ha
Outline: as §1

[14] = tested on: common ragweed (Ambrosia elation); settings: for Ragweed plant response rating: 8 g ai/ha
Outline: as §1

[15] = Preemergence, 16 g ai/ha, scale 0 to 100 (0 no effect, 100 complete control)
[16] = Preemergence, 31 g ai/ha, 0 to 100 scale, 0 no effect, 100 complete control
[17] = Preemergence, 62 g ai/ha, scale 0 to 100
[18] = 16 g ai/ha, scale 0 to 100 (0 no effect, 100 complete control)
[19] = 31 g ai/ha, 0 to 100 scale, 0 no effect, 100 complete control
[20] = Postemergence, 16 g ai/ha, scale 0 to 100
[21] = Postemergence, 31 g ai/ha, scale 0 to 100, 0 no effect, 100 complete control
[22] = Postemergence, 62 g ai/ha, scale 0 to 100, 0 no effect, 100 complete control

SMILES: Cn1ncc(O)c(-c2nn(-c3ccc(Cl)cc3)cc2Br)c1=O [Compound 31]
- Plant response rating, Kochia [1, 15]: 0
- Plant response rating, Kochia [1, 16]: 0
- Plant response rating, Kochia [1, 17]: 0
- Kochia plant response rating ([1]; Preemergence, scale 0 to 100): 0
- Plant response rating, Johnsongrass [2, 15]: 60
- Plant response rating, Johnsongrass [2, 16]: 75
- Plant response rating, Johnsongrass [2, 17]: 75
- Johnsongrass plant response rating ([2]; Preemergence, scale 0 to 100): 55
- Plant response rating, Cupgrass, Woolly [3, 15]: 98
- Plant response rating, Cupgrass, Woolly [3, 16]: 100
- Plant response rating, Cupgrass, Woolly [3, 17]: 100
- Cupgrass, Woolly plant response rating ([3]; Preemergence, scale 0 to 100): 70
- Plant response rating, Russian Thistle [4, 18]: 0
- Plant response rating, Russian Thistle [4, 19]: 0
- Plant response rating, Russian Thistle ([4]; 62 g ai/ha, scale 0 to 100): 0
- Russian Thistle plant response rating ([4]; scale 0 to 100): 0
- Plant response rating, Blackgrass [5, 15]: 90
- Plant response rating, Blackgrass [5, 16]: 98
- Plant response rating, Blackgrass [5, 17]: 100
- Blackgrass plant response rating ([5]; Preemergence, scale 0 to 100): 80
- Plant response rating, Pigweed [6, 15]: 0
- Plant response rating, Pigweed [6, 16]: 0
- Plant response rating, Pigweed [6, 17]: 0
- Pigweed plant response rating ([6]; Preemergence, scale 0 to 100): 0
- Plant response rating, Soybean [7, 15]: 0
- Plant response rating, Soybean [7, 16]: 0
- Plant response rating, Soybean [7, 17]: 60
- Soybean plant response rating ([7]; Preemergence, scale 0 to 100): 0
- Plant response rating, Lambsquarters [8, 15]: 0
- Plant response rating, Lambsquarters [8, 16]: 0
- Plant response rating, Lambsquarters [8, 17]: 0
- Lambsquarters plant response rating ([8]; Preemergence, scale 0 to 100): 0
- Plant response rating, Galium [9, 18]: 0
- Plant response rating, Galium [9, 19]: 0
- Plant response rating, Galium ([9]; 62 g ai/ha, scale 0 to 100): 50
- Galium plant response rating ([9]; scale 0 to 100): 0
- Plant response rating, Goosegrass [10, 15]: 90
- Plant response rating, Goosegrass [10, 16]: 100
- Plant response rating, Goosegrass [10, 17]: 100
- Goosegrass plant response rating ([10]; Preemergence, scale 0 to 100): 85
- Plant response rating, Foxtail, Giant [11, 15]: 90
- Plant response rating, Foxtail, Giant [11, 16]: 100
- Plant response rating, Foxtail, Giant [11, 17]: 100
- Foxtail, Giant plant response rating ([11]; Preemergence, scale 0 to 100): 90
- Plant response rating, Ryegrass, Italian [12, 15]: 90
- Plant response rating, Ryegrass, Italian [12, 16]: 90
- Plant response rating, Ryegrass, Italian [12, 17]: 100
- Ryegrass, Italian plant response rating ([12]; Preemergence, scale 0 to 100): 50
- Plant response rating, Nightshade, E. B. [13, 18]: 0
- Plant response rating, Nightshade, E. B. [13, 19]: 0
- Plant response rating, Nightshade, E. B. ([13]; 62 g ai/ha, scale 0 to 100): 0
- Nightshade, E. B. plant response rating ([13]; scale 0 to 100): 0
- Plant response rating, Ragweed [14, 15]: 0
- Plant response rating, Ragweed [14, 16]: 0
- Plant response rating, Ragweed [14, 17]: 0
- Ragweed plant response rating ([14]; Preemergence, scale 0 to 100): 0

SMILES: COC(=O)Oc1cnn(C)c(=O)c1-n1nc(-c2ccc(Cl)cc2)cc1C [Compound 33]
- Kochia plant response rating ([1]; postemergence, 0-100 scale): 0
- Plant response rating, Kochia [1, 20]: 0
- Plant response rating, Kochia [1, 21]: 0
- Plant response rating, Kochia [1, 22]: 0
- Plant response rating, Kochia [1, 16]: 0
- Plant response rating, Kochia [1, 17]: 0
- Kochia plant response rating ([1]; Preemergence, scale 0 to 100): 0
- Johnsongrass plant response rating ([2]; postemergence, 0-100 scale): 70
- Plant response rating, Johnsongrass [2, 20]: 70
- Plant response rating, Johnsongrass [2, 21]: 85
- Plant response rating, Johnsongrass [2, 22]: 90
- Plant response rating, Johnsongrass [2, 15]: 95
- Plant response rating, Johnsongrass [2, 16]: 98
- Plant response rating, Johnsongrass [2, 17]: 100
- Johnsongrass plant response rating ([2]; Preemergence, scale 0 to 100): 60
- Cupgrass, Woolly plant response rating ([3]; postemergence, 0-100 scale): 98
- Plant response rating, Cupgrass, Woolly [3, 20]: 100
- Plant response rating, Cupgrass, Woolly [3, 21]: 100
- Plant response rating, Cupgrass, Woolly [3, 22]: 100
- Plant response rating, Cupgrass, Woolly [3, 15]: 90
- Plant response rating, Cupgrass, Woolly [3, 16]: 100
- Plant response rating, Cupgrass, Woolly [3, 17]: 100
- Cupgrass, Woolly plant response rating ([3]; Preemergence, scale 0 to 100): 80
- Plant response rating, Russian Thistle [4, 18]: 0
- Plant response rating, Russian Thistle [4, 19]: 0
- Plant response rating, Russian Thistle ([4]; 62 g ai/ha, scale 0 to 100): 80
- Russian Thistle plant response rating ([4]; scale 0 to 100): 0
- Blackgrass plant response rating ([5]; postemergence, 0-100 scale): 70
- Plant response rating, Blackgrass [5, 20]: 70
- Plant response rating, Blackgrass [5, 21]: 80
- Plant response rating, Blackgrass [5, 22]: 95
- Plant response rating, Blackgrass [5, 15]: 100
- Plant response rating, Blackgrass [5, 16]: 100
- Plant response rating, Blackgrass [5, 17]: 100
- Blackgrass plant response rating ([5]; Preemergence, scale 0 to 100): 60
- Pigweed plant response rating ([6]; postemergence, 0-100 scale): 0
- Plant response rating, Pigweed [6, 20]: 0
- Plant response rating, Pigweed [6, 21]: 0
- Plant response rating, Pigweed [6, 22]: 0
- Plant response rating, Pigweed [6, 15]: 0
- Plant response rating, Pigweed [6, 16]: 0
- Plant response rating, Pigweed [6, 17]: 0
- Pigweed plant response rating ([6]; Preemergence, scale 0 to 100): 0
- Soybean plant response rating ([7]; postemergence, 0-100 scale): 0
- Plant response rating, Soybean [7, 20]: 0
- Plant response rating, Soybean [7, 22]: 0
- Plant response rating, Soybean [7, 15]: 0
- Plant response rating, Soybean [7, 16]: 0
- Plant response rating, Soybean [7, 17]: 0
- Soybean plant response rating ([7]; Preemergence, scale 0 to 100): 0
- Lambsquarters plant response rating ([8]; postemergence, 0-100 scale): 0
- Plant response rating, Lambsquarters [8, 20]: 0
- Plant response rating, Lambsquarters [8, 21]: 0
- Plant response rating, Lambsquarters [8, 22]: 0
- Plant response rating, Lambsquarters [8, 15]: 0
- Plant response rating, Lambsquarters [8, 16]: 0
- Plant response rating, Lambsquarters [8, 17]: 0
- Lambsquarters plant response rating ([8]; Preemergence, scale 0 to 100): 0
- Plant response rating, Galium [9, 18]: 0
- Plant response rating, Galium [9, 19]: 0
- Plant response rating, Galium ([9]; 62 g ai/ha, scale 0 to 100): 0
- Galium plant response rating ([9]; scale 0 to 100): 0
- Goosegrass plant response rating ([10]; postemergence, 0-100 scale): 50
- Plant response rating, Goosegrass [10, 20]: 70
- Plant response rating, Goosegrass [10, 21]: 90
- Plant response rating, Goosegrass [10, 22]: 100
- Plant response rating, Goosegrass [10, 15]: 98
- Plant response rating, Goosegrass [10, 16]: 98
- Plant response rating, Goosegrass [10, 17]: 98
- Goosegrass plant response rating ([10]; Preemergence, scale 0 to 100): 85
- Foxtail, Giant plant response rating ([11]; postemergence, 0-100 scale): 100
- Plant response rating, Foxtail, Giant [11, 20]: 100
- Plant response rating, Foxtail, Giant [11, 21]: 100
- Plant response rating, Foxtail, Giant [11, 22]: 100
- Plant response rating, Foxtail, Giant [11, 15]: 100
- Plant response rating, Foxtail, Giant [11, 16]: 100
- Plant response rating, Foxtail, Giant [11, 17]: 100
- Foxtail, Giant plant response rating ([11]; Preemergence, scale 0 to 100): 100
- Ryegrass, Italian plant response rating ([12]; postemergence, 0-100 scale): 75
- Plant response rating, Ryegrass, Italian [12, 20]: 80
- Plant response rating, Ryegrass, Italian [12, 21]: 100
- Plant response rating, Ryegrass, Italian [12, 22]: 100
- Plant response rating, Ryegrass, Italian [12, 15]: 95
- Plant response rating, Ryegrass, Italian [12, 16]: 95
- Plant response rating, Ryegrass, Italian [12, 17]: 98
- Ryegrass, Italian plant response rating ([12]; Preemergence, scale 0 to 100): 85
- Plant response rating, Nightshade, E. B. [13, 18]: 0
- Plant response rating, Nightshade, E. B. [13, 19]: 0
- Plant response rating, Nightshade, E. B. ([13]; 62 g ai/ha, scale 0 to 100): 0
- Nightshade, E. B. plant response rating ([13]; scale 0 to 100): 0
- Ragweed plant response rating ([14]; postemergence, 0-100 scale): 0
- Plant response rating, Ragweed [14, 20]: 0
- Plant response rating, Ragweed [14, 21]: 0
- Plant response rating, Ragweed [14, 22]: 0
- Plant response rating, Ragweed [14, 15]: 0
- Plant response rating, Ragweed [14, 16]: 0
- Plant response rating, Ragweed [14, 17]: 0
- Ragweed plant response rating ([14]; Preemergence, scale 0 to 100): 0
